Source: patent publication US20240299299A1, “COMPOSITIONS AND METHODS FOR INCREASING THE EFFICACY OF IMMUNOTHERAPIES AND VACCINES” (The Regents of the University of Michigan, priority 2021, published 2024)

Tests used:
tumor = settings: reported in literature (Geiger et al.); cited from earlier work
OT-I CD8+ T cells [1] = experiment: CD8+ T cell survival upon IL-2 withdrawal (Annexin V/PI); type: cell-based, mice; settings: dependent on the dose of metabolites
Description: FIG. 4: a) OT-I CD8+ T cells were cultured with different metabolites in vitro as indicated, b,c) shown are the level of survival CD8+ T cells (Annexin V^−PI^−) as well as the representative flow cytometry plots on day 5.5. Data represent the mean±s.e.m. (n=5).
Splenocytes from OT-I mice were obtained aseptically. The cells were cultured in 96-well plates (1×10^5 cells per well). For Tcm differentiation study, cells were activated with SIINFEKL peptide (4×10^−9M) in the presence of various metabolites (arginine: 3 mM; 3-methylhistidine: 3 mM; N-acetylneuraminate: 100 μM; disodium sebacate: 100 μM; DHB: 100 μM; pantothenate: 100 μM; γ-aminobutyric acid: 100 μM; glycerol: 100 μM; AICAR: 100 μM, sodium ferulate: 100 μM) for 3 days. Then cells were washed three times with T-cell medium and further cultured with IL-2 (10 ng ml^−1; PeproTech) in the presence of metabolites for 5 days. The cells were then washed twice and re-activated with SIINFEKL peptide (10 μM) for 2 h. The suspension cells were collected, blocked with CD16/32 antibody and stained with the fixable viability dye eFluor 450, FITC-CD44 rat anti-human/mouse and PE-CD62L monoclonal antibody. To test if the central memory CD8+ T cells differentiation is dependent on dendritic cells, CD8 T cells isolated from the spleen in OT-I mice were incubated in the 96-well plate, which was precoated with anti-hamster IgG antibody. […] (1 μg mL^−1) and IL-2 (100 U mL^−1) were added into each well in the presence of 3-methylhistidine (3 mM), DHB (100 μM), or sodium ferulate (100 μM) for 2 days. Then cells were washed for three times to remove α-CD3/α-CD28 antibodies and further incubated with metabolites and IL-2 (10 ng ml^−1) for 5 days. Thereafter, cells were collected for central memory CD8^+ T cells analysis. For CD8^+ T cells survival study, cells were activated with antigen peptide as above, following with thoroughly washing, and incubation in presence of IL-2 for 2 days. […] Tcf1^+CD8^+, CD44^+CD62L^+CD8^+ and survival (stained with Annexin V-APC and PI) T cells were detected via flow cytometry.

OT-I CD8+ T cells [2] = experiment: In vitro central memory (Tcm) differentiation of OT-I CD8+ T cells activated with SIINFEKL peptide and IL-2 with metabolites; type: cell-based, mice; settings: day 8; metabolite-supplemented medium (arginine 3 mM, 3-methylhistidine 3 mM, DHB 100 μM, sodium ferulate 100 μM)
Description: FIG. 2: a) OT-I CD8+ T cells were cultured with different metabolites in vitro as indicated, b,c) shown is the frequency of CD44^+CD62L^+ Tcm CD8+ T cells on day 8. d) OT-I CD8+ T cells were activated with α-CD3/α-CD28 antibodies in presence of metabolites as indicated and shown is the Tcm CD8+ T cells on day 7. Data represent the mean±s.e.m. (n=5).
Splenocytes from OT-I mice were obtained aseptically. The cells were cultured in 96-well plates (1×10^5 cells per well). For Tcm differentiation study, cells were activated with SIINFEKL peptide (4×10^−9M) in the presence of various metabolites (arginine: 3 mM; 3-methylhistidine: 3 mM; N-acetylneuraminate: 100 μM; disodium sebacate: 100 μM; DHB: 100 μM; pantothenate: 100 μM; γ-aminobutyric acid: 100 μM; glycerol: 100 μM; AICAR: 100 μM, sodium ferulate: 100 μM) for 3 days. Then cells were washed three times with T-cell medium and further cultured with IL-2 (10 ng ml^−1; PeproTech) in the presence of metabolites for 5 days. The cells were then washed twice and re-activated with SIINFEKL peptide (10 μM) for 2 h. The suspension cells were collected, blocked with CD16/32 antibody and stained with the fixable viability dye eFluor 450, FITC-CD44 rat anti-human/mouse and PE-CD62L monoclonal antibody. To test if the central memory CD8+ T cells differentiation is dependent on dendritic cells, CD8 T cells isolated from the spleen in OT-I mice were incubated in the 96-well plate, which was precoated with anti-hamster IgG antibody. […] (1 μg mL^−1) and IL-2 (100 U mL^−1) were added into each well in the presence of 3-methylhistidine (3 mM), DHB (100 μM), or sodium ferulate (100 μM) for 2 days. Then cells were washed for three times to remove α-CD3/α-CD28 antibodies and further incubated with metabolites and IL-2 (10 ng ml^−1) for 5 days. Thereafter, cells were collected for central memory CD8^+ T cells analysis. For CD8^+ T cells survival study, cells were activated with antigen peptide as above, following with thoroughly washing, and incubation in presence of IL-2 for 2 days. Metabolites were added during this incubation (arginine: 3 mM, 1 mM; 3-methylhistidine: 3 mM, 1 mM, 500 μM, 100 μM; N-acetylneuraminate: 100 μM; disodium sebacate: 100 μM; DHB: 100 μM, 50 μM, 20 μM; pantothenate: 100 μM; γ-aminobutyric acid: 100 μM; glycerol: 100 μM; AICAR: 100 μM). Then cells were further incubated in absence of both IL-2 and metabolites for 36 h to induce the apoptosis/dead. For Tcf1^+CD8^+ differentiation study, cells were activated with antigen peptide as above, followed by thoroughly washing, and incubation with metabolites in presence of IL-2 for 3 days. […] Tcf1^+CD8^+, CD44^+CD62L^+CD8^+ and survival (stained with Annexin V-APC and PI) T cells were detected via flow cytometry.

[3] = tested on: CT26 colon carcinoma cells; experiment: CT26 tumor model, oral prodrug-based lipid formulation plus α-PD-1; type: in vivo, BALB/c mice
Description: FIG. 9: a) Scheme showing the preparation of formulation encapsulating DHB prodrug. b) Therapeutic treatment regimen. BALB/c mice were s.c. inoculated with 1.5×10^5 CT26 colon carcinoma cells. The prodrug #201 (0.5 mg per dose) or #905 (1 mg per dose) were orally administrated every other day, respectively. 100 μg α-PD-1 was injected i.p. on days 11, 15, and 19. Shown are the (c) average tumor growth; AH1-specific CD8+ T cells in PBMCs on days (d) 18 and (e) 24. Tumor microenvironment analysis: (f) immune cells (CD45^+ cells) infiltration, (g) CD8^+ T cells, (h) CD44^+CD62L^+ central memory CD8+ T cells, and (i) AH1-specific CD8^+ T cells in tumor tissue on day 25. Data represent the mean±s.e.m. (n=5).
The CT26 tumor model was established as above. The formulation containing prodrug #201 or #905 was orally administered starting on day 8 and performed every other day. α-PD-1 antibody (100 μg per dose) was i.p. injected on days 11, 15, and 19. The PBMCs were obtained on days 18 and 24 and stained with PE-tagged peptide-MHC tetramer (H-2L^d-restricted SPSYVYHQF). Mice were euthanized on day 25 and tumor tissues were cut into small pieces and incubated with collagenase type IV (1 mg ml-1) and DNase I (0.1 mg ml-1) under gentle shaking. After 30 min, the cell suspension was filtered through a 70-μm strainer. The cells were washed with fluorescence-activated cell sorting (FACS) buffer and blocked with CD16/32 antibody. The cells were then stained with the designated antibodies: efluor450, FITC-CD44 rat anti-human/mouse, PE-CD62L monoclonal antibody, and APC-CD8 rat anti-mouse, PE-Tcf1/Tcf7 rabbit monoclonal antibody, APC-efluor780-Cd45 Rat anti Mouse (Clone: 30 F11), PE-AH1-specific tetramer. Cells were analyzed by flow cytometry.

[4] = Encapsulation of DHB-based prodrugs in lipid-based formulation; type: physicochemical; settings: oleic acid, Tween 80, PBS emulsion
Description: The DHB-based prodrugs were synthesized by the Medicinal Chemistry Core in University of Michigan. To prepare the formulation, the prodrug #201 or #905 (4 mg) was added to the mixture of oleic acid (45 μL) and Tween 80 (25 μL) and incubated overnight to equilibrate and allow the prodrug to dissolve. Then an aqueous phase consisting of PBS buffer was added, and the formulation emulsified by ultrasonication with an ultrasonic processor.

| Compound | antitumor effect in vivo (tumor) | survival of activated CD8+ T cells (OT-I CD8+ T cells [1]) | differentiation of CD44+CD62L+ central memory CD8+ T cells (OT-I CD8+ T cells [2]) | infiltration of immune cells (CD45+ cells), AH1-specific CD8+ T cells and CD44+CD62L+ central memory CD8+ T cells in tumor tissue ([3]; oral formulation plus α-PD-1, day 25) | frequency of AH1-specific CD8+ T cells among PBMCs ([3]; oral formulation plus α-PD-1, days 18 and 24) | tumor growth ([3]; orally administered lipid formulation, 0.5 mg per dose every other day, plus α-PD-1) | encapsulation in lipid-based dose forms [4] |
| --- | --- | --- | --- | --- | --- | --- | --- |
| N=C(N)NCCC[C@H](N)C(=O)O [L-arginine] | improve the antitumor effect in vivo | significantly increased the survival | significantly increased the differentiation |  |  |  |  |
| CCOC(=O)c1ccc(OC(=O)C(C)(C)C)c(OC(=O)C(C)(C)C)c1 [Prodrug #201, 4-(ethoxycarbonyl)-1,2-phenylene bis(2,2-dimethylpropanoate)] |  |  |  | promoted the infiltration | increased the frequency | substantially slowed down the tumor growth | can be successfully encapsulated |
